Assay results: patent US8633245B2, “PAI-1 inhibitor” (Institute of Medicinal Molecular Design, Inc., priority 2008, dated 2014)

Target: T1, recombinant human PAI-1 (Homo sapiens, UniProt P05121)
T1 construct: purchased Molecular Innovations, Inc
Assay: Test Example 2: human PAI-1 inhibitory activity (tPA fluorogenic substrate, pH 7.4 HEPES buffer)
Assay type: biochemical
Settings: human PAI-1
Method: 0.1 M HEPES, 0.1 M NaCl. 1 mM EDTA. 0.1% Polyethylene glycol 8,000 (Hampton Research Corporation),
2 mM Dimethyldecylphoshine oxide [Apo-10] (Fluka Corporation)

T1 sequence (P05121 24-402): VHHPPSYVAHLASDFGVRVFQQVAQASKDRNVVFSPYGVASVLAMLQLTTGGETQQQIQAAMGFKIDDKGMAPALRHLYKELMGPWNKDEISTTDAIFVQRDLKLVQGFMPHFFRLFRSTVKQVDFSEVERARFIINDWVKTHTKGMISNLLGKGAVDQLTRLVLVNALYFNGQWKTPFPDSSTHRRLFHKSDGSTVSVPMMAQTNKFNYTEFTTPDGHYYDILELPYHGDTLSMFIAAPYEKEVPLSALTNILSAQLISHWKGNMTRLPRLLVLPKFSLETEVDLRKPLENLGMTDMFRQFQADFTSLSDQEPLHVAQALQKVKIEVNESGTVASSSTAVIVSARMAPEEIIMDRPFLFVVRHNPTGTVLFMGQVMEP

Inhibition Rate of PAI-1 Activity (%) (compound concentration 1 μM)	Inhibition Rate of PAI-1 Activity (%) (compound concentration 3 μM)	Inhibition Rate of PAI-1 Activity (%) (compound concentration 10 μM)	Inhibition Rate of PAI-1 Activity (%) (compound concentration 25 μM)	Inhibition Rate of PAI-1 Activity (%) (compound concentration 0.1 μM)	Inhibition Rate of PAI-1 Activity (%) (compound concentration 0.3 μM)	Compound
26	54	>99	>99	–	–	CN(C(=O)c1ccc(OC(F)(F)F)cc1)c1ccc(OCc2ccc(C(C)(C)C)cc2)c(CCC(=O)O)c1 [Compound 416]
73	95	94	90	–	–	CC(C)(C)c1ccc(COc2ccc(N3CCN(c4ccc(OC(F)(F)F)cc4)CC3)cc2/C=C/C(=O)O)cc1 [Compound 418]
41	93	98	>99	–	–	CC(C)(C)c1ccc(COc2ccc(N3CCN(c4ccc(OC(F)(F)F)cc4)CC3)cc2CCC(=O)O)cc1 [Compound 419]
14	81	–	–	0	3	CC(C)(C)c1ccc(COc2ccc(-c3ccc(OC(F)(F)F)cc3)cc2C(=O)O)cc1 [Compound 421]
72	>99	–	–	12	24	CCCCC(CC(=O)O)c1cc(-c2ccc(OC(F)(F)F)cc2)ccc1Oc1ccc(C(C)(C)C)cc1 (centres unmarked) [Compound 422]
74	96	–	–	1	1	CCCCC(Nc1cc(-c2ccc(OC(F)(F)F)cc2)ccc1Oc1ccc(C(C)(C)C)cc1)C(=O)O (centres unmarked) [Compound 423]
38	>99	–	–	0	4	CCCCCOc1cc(-c2ccc(OC(F)(F)F)cc2)cc(OCCCCC)c1OCC(=O)O [Compound 424]
>99	–	–	–	17	54	CCCCCCCOc1cc(-c2ccc(OC(F)(F)F)cc2)cc(OCCCCCCC)c1OCC(=O)O [Compound 425]
95	97	–	–	10	29	CCCCC(Oc1cc(Oc2ccc(C(C)(C)C)cc2)cc(-c2ccc(OC(F)(F)F)cc2)c1)C(=O)O (centres unmarked) [Compound 426]
62	97	–	–	1	27	CC(C)(C)c1ccc(Oc2cc(OCC(=O)O)cc(-c3ccc(OC(F)(F)F)cc3)c2)cc1 [Compound 427]
92	94	–	–	18	36	CCCCN(CC(=O)O)c1cc(-c2ccc(OC(F)(F)F)cc2)ccc1Oc1ccc(C(C)(C)C)cc1 [Compound 428]
93	95	–	–	7	9	CCCCCCOc1ccc(-c2ccc(OC(F)(F)F)cc2)cc1OC(CCCCCC)C(=O)O (centres unmarked) [Compound 429]
97	>99	–	–	1	15	CCCCCCOc1cc(-c2ccc(OC(F)(F)F)cc2)ccc1OC(CCCCCC)C(=O)O (centres unmarked) [Compound 430]
77	>99	–	–	0	0	CC(C)(C)c1ccc(Oc2ccc(Nc3ccc(OC(F)(F)F)cc3)cc2/C=C/C(=O)O)cc1 [Compound 431]
25	97	–	–	4	0	CC(C)(C)c1ccc(Oc2ccc(Nc3ccc(OC(F)(F)F)cc3)cc2CCC(=O)O)cc1 [Compound 432]
41	98	–	–	13	6	CCCCN(CC(=O)O)c1cc(-c2ccc(OC(F)(F)F)cc2)ccc1OCCCCc1ccccc1 [Compound 433]
66	>99	–	–	14	8	CC(C)(C)c1ccc(Oc2cc(-c3ccc(OC(F)(F)F)cc3)ccc2C(=O)O)cc1 [Compound 434]
81	98	–	–	12	29	CCCN(CC(=O)O)c1cc(-c2ccc(OC(F)(F)F)cc2)ccc1Oc1ccc(C(C)(C)C)cc1 [Compound 435]

Inhibition Rate of PAI-1 Activity (%) (compound concentration 1 μM)	Inhibition Rate of PAI-1 Activity (%) (compound concentration 3 μM)	Inhibition Rate of PAI-1 Activity (%) (compound concentration 10 μM)	Inhibition Rate of PAI-1 Activity (%) (compound concentration 25 μM)	Inhibition Rate of PAI-1 Activity (%) (compound concentration 0.1 μM)	Inhibition Rate of PAI-1 Activity (%) (compound concentration 0.3 μM)	Compound
63	>99	–	–	3	19	CC(C)(C)c1cccc(Oc2cc(-c3ccc(OC(F)(F)F)cc3)ccc2OCC(=O)O)c1 [Compound 436]
67	98	–	–	0	12	CC(C)(C)c1cccc(Oc2ccc(-c3ccc(OC(F)(F)F)cc3)cc2/C=C/C(=O)O)c1 [Compound 437]
50	>99	–	–	13	11	CC(C)(C)c1cccc(Oc2ccc(-c3ccc(OC(F)(F)F)cc3)cc2CCC(=O)O)c1 [Compound 438]
44	>99	–	–	12	9	CC(C)(C)c1cccc(Oc2ccc(-c3ccc(OC(F)(F)F)cc3)cc2OCC(=O)O)c1 [Compound 439]
96	>99	–	–	0	3	CCCCCOc1ccc(-c2ccc(OCC(=O)O)c(Oc3ccc(C(C)(C)C)cc3)c2)cc1 [Compound 440]
89	98	–	–	9	29	CC(C)c1ccc(-c2ccc(OCC(=O)O)c(Oc3ccc(C(C)(C)C)cc3)c2)cc1 [Compound 441]
83	>99	–	–	1	4	CC(C)(C)c1ccc(Oc2cc(-c3ccc(OC(F)(F)F)cc3)ccc2NCC(=O)O)cc1 [Compound 442]
76	>99	–	–	7	8	CCCCc1ccc(-c2ccc(OCC(=O)O)c(Oc3ccc(C(C)(C)C)cc3)c2)cc1 [Compound 443]
11	96	–	–	0	0	Cc1ccc(-c2ccc(OCC(=O)O)c(Oc3ccc(C(C)(C)C)cc3)c2)cc1 [Compound 444]
12	50	–	–	0	1	COc1ccc(-c2ccc(OCC(=O)O)c(Oc3ccc(C(C)(C)C)cc3)c2)cc1 [Compound 445]
84	>99	–	–	3	13	CC(C)(C)c1ccc(Oc2cc(-c3ccc(C(C)(C)C)cc3)ccc2OCC(=O)O)cc1 [Compound 446]
89	>99	–	–	4	11	CCC(CC)Oc1ccc(-c2ccc(OCC(=O)O)c(Oc3ccc(C(C)(C)C)cc3)c2)cc1 [Compound 447]
39	>99	–	–	4	11	CSc1ccc(-c2ccc(OCC(=O)O)c(Oc3ccc(C(C)(C)C)cc3)c2)cc1 [Compound 448]
58	98	–	–	9	11	CC(C)(C)c1ccc(Oc2cc(-c3ccc(OC(F)(F)F)cc3)ccc2/C=C\C(=O)O)cc1 [Compound 450]
15	94	–	–	9	8	O=C(O)COc1cc(Oc2ccc(OC(F)(F)F)cc2)ccc1OCCCCc1ccccc1 [Compound 452]
96	>99	–	–	4	15	CC(C)(C)c1ccc(Oc2ccc(-c3ccc(C(C)(C)C)cc3)cc2OCC(=O)O)cc1 [Compound 453]
>99	>99	–	–	11	17	CCCCCOc1ccc(-c2ccc(Oc3ccc(C(C)(C)C)cc3)c(OCC(=O)O)c2)cc1 [Compound 454]
93	99	–	–	9	20	CC(C)(C)c1ccc(Oc2cc(-c3cc(Cl)ccc3Cl)ccc2OCC(=O)O)cc1 [Compound 455]
